{
  "source": "patent US20070027150A1",
  "about": "(priority 2005, published 2007)",
  "data": [
    {"biological_target": "His-tagged N-terminal ATP binding domain (amino acid residues 9-236) of HSP90α (Homo sapiens, UniProt P07900)", "test": "HSP90 inhibitor binding potency: TRF competition binding assay", "settings": "Table I; read-out: Hsp90 IC50 Range", "method": "(§1) HSP90 Inhibitor Binding Potency: TRF Binding Assay\n(§2) In this example, the binding potency of HSP90 inhibitors as measured by a TRF binding assay is described.\n(§3) TRF competition binding assays were performed to determine the binding potency (IC50 values) of HSP90 inhibitors. Purified His-tagged N-terminal ATP binding domain (amino acid residues 9-236) of HSP90α (HSP90α GeneID: 3320; mRNA Sequence NM_005348) was incubated for two hours at room temperature in binding buffer (50 mM HEPES, 6 mM MgCl2, 20 mM KCl and 0.1% BSA) with biotinylated radicicol and progressively higher concentrations of the competing compounds. A fraction of the mixture was transferred to capture plates (coated with streptavidin) and incubated for one hour at room temperature. After washing with DELFIA wash buffer, europium-labeled anti-his antibody was added and incubated for two hours at room temperature, followed by washing with DELFIA buffer. DELFIA enhancement solution was then added. After gentle shaking for 10 minutes, the plates were read in VICTOR for europium counts.", "units": {"IC50": "nM"}, "values": [
      {"smiles": "Cc1nc(N)nc2c1C(=O)CC(c1ccccc1OCCN1CCN(C)CC1)C2", "note": "(stereo not shown) [Compound 152, 2-amino-4-methyl-7-{2-[2-(4-methyl-piperazin-1-yl)-ethoxy]-phenyl}-7,8-dihydro-6H-quinazolin-5-one]", "IC50": "1000 to 10000"},
      {"smiles": "COc1ccc(-c2ccccc2C2CC(=O)c3c(C)nc(N)nc3C2)c(OC)c1", "note": "(stereo not shown) [Compound 107, 2-amino-7-(2′,4′-dimethoxy-1,1′-biphenyl-2-yl)-4-methyl-7,8-dihydroquinazolin-5(6H)-one]", "IC50": "1000 to 10000"},
      {"smiles": "Cc1nc(N)nc2c1C(=O)CC(c1ccccc1-c1cnccn1)C2", "note": "(stereo not shown) [Compound 31, 2-amino-4-methyl-7-(2-pyrazin-2-ylphenyl)-7,8-dihydroquinazolin-5(6H)-one]", "IC50": "< 1000"},
      {"smiles": "COc1cccc(C2=CCCCC2)c1C1CC(=O)c2c(C)nc(N)nc2C1", "note": "(stereo not shown) [Compound 78, 2-amino-7-(2-cyclohex-1-en-1-yl-6-methoxyphenyl)-4-methyl-7,8-dihydroquinazolin-5(6H)-one]", "IC50": "< 1000"},
      {"smiles": "CCOc1cccc(-c2cccnc2F)c1C1CC(=O)c2c(C)nc(N)nc2C1", "note": "(stereo not shown) [Compound 151, 2-amino-7-[2-ethoxy-6-(2-fluoro-pyridin-3-yl)-phenyl]-4-methyl-7,8-dihydro-6H-quinazolin-5-one]", "IC50": "< 1000"},
      {"smiles": "COc1cccc(C2CCCCC2)c1C1CC(=O)c2c(C)nc(N)nc2C1", "note": "(stereo not shown) [Compound 20, 2-amino-7-(2-cyclohexyl-6-methoxyphenyl)-4-methyl-7,8-dihydroquinazolin-5(6H)-one]", "IC50": "> 10000"},
      {"smiles": "Cc1nc(N)nc2c1C(=O)CC(c1cccnc1-c1nccs1)C2", "note": "(stereo not shown) [Compound 36, 2-amino-4-methyl-7-[2-(1,3-thiazol-2-yl)pyridin-3-yl]-7,8-dihydroquinazolin-5(6H)-one]", "IC50": "1000 to 10000"},
      {"smiles": "Cc1nc(N)nc2c1C(=O)CC(c1cccc(C(N)=O)c1)C2", "note": "(stereo not shown) [Compound 166, 3-(2-amino-4-methyl-5-oxo-5,6,7,8-tetrahydroquinazolin-7-yl)benzamide]", "IC50": "> 10000"},
      {"smiles": "COc1cccc(-c2cn(C)nc2C2CC(=O)c3c(C)nc(N)nc3C2)n1", "note": "(stereo not shown) [Compound 127, 2-amino-7-[4-(6-methoxy-pyridin-2-yl)-1-methyl-1H-pyrazol-3-yl]-4-methyl-7,8-dihydro-6H-quinazolin-5-one]", "IC50": "< 1000"},
      {"smiles": "Cc1nc(N)nc2c1C(=O)CC(c1ccccc1Oc1ncccn1)C2", "note": "(stereo not shown) [Compound 144, 2-amino-4-methyl-7-[2-(pyrimidin-2-yloxy)phenyl]-7,8-dihydroquinazolin-5(6H)-one]", "IC50": "1000 to 10000"},
      {"smiles": "Cc1nc(N)nc2c1C(=O)CC(c1ccc(F)cc1Oc1ccccc1)C2", "note": "(stereo not shown) [Compound 140, 2-amino-7-(4-fluoro-2-phenoxy-phenyl)-4-methyl-7,8-dihydro-6H-quinazolin-5-one]", "IC50": "< 1000"},
      {"smiles": "Cc1nc(N)nc2c1C(=O)CC(c1nn(C)cc1-c1cccnc1F)C2", "note": "(stereo not shown) [Compound 63, 2-amino-7-[4-(2-fluoro-pyridin-3-yl)-1-methyl-1H-pyrazol-3-yl]-4-methyl-7,8-dihydro-6H-quinazolin-5-one]", "IC50": "< 1000"},
      {"smiles": "Cc1nc(N)nc2c1C(=O)CC(c1ccccc1Oc1cncnc1)C2", "note": "(stereo not shown) [Compound 142, 2-amino-4-methyl-7-[2-(pyrimidin-5-yloxy)phenyl]-7,8-dihydroquinazolin-5(6H)-one]", "IC50": "< 1000"},
      {"smiles": "Cc1nc(N)nc2c1C(=O)CC(c1ccccc1-c1cc(F)cnc1Cl)C2", "note": "(stereo not shown) [Compound 101, 2-amino-7-[2-(2-chloro-5-fluoropyridin-3-yl)phenyl]-4-methyl-7,8-dihydroquinazolin-5(6H)-one]", "IC50": "< 1000"},
      {"smiles": "Cc1nc(N)nc2c1C(=O)CC(c1c(OCCN3CCNCC3)cccc1-c1cccnc1F)C2", "note": "(stereo not shown) [Compound 156, 2-amino-7-[2-(2-fluoro-pyridin-3-yl)-6-(2-piperazin-1-yl-ethoxy)-phenyl]-4-methyl-7,8-dihydro-6H-quinazolin-5-one]", "IC50": "< 1000"},
      {"smiles": "COc1cccc(Oc2ccccc2)c1C1CC(=O)c2c(C)nc(N)nc2C1", "note": "(stereo not shown) [Compound 22, 2-amino-7-(2-methoxy-6-phenoxyphenyl)-4-methyl-7,8-dihydroquinazolin-5(6H)-one]", "IC50": "1000 to 10000"},
      {"smiles": "Cc1nc(N)nc2c1C(=O)CC(c1ccccc1-c1cccc3cc[nH]c13)C2", "note": "(stereo not shown) [Compound 129, 2-amino-7-[2-(1H-indol-7-yl)phenyl]-4-methyl-7,8-dihydroquinazolin-5(6H)-one]", "IC50": "< 1000"}
    ]},
    {"biological_target": "His-tagged N-terminal ATP binding domain (amino acid residues 9-236) of HSP90α (Homo sapiens, UniProt P07900)", "test": "HSP90 inhibitor binding potency: TRF competition binding assay", "settings": "Table II; read-out: Hsp90 IC50 Range", "method": "as §1, §2, §3", "units": {"IC50": "nM"}, "values": [
      {"smiles": "Cc1nc(N)nc2c1C(=O)CC(c1ccc(F)cc1OC1CCCC1)C2", "note": "(stereo not shown) [Compound 255, 2-amino-7-(2-cyclopentyloxy-4-fluoro-phenyl)-4-methyl-7,8-dihydro-6H-quinazolin-5-one]", "IC50": "< 1000"},
      {"smiles": "COc1nc(-c2cc(F)ccc2[C@@H]2CC(=O)c3c(C)nc(N)nc3C2)cnc1N", "note": "[Compound 287, (S)-2-amino-7-[2-(5-amino-6-methoxy-pyrazin-2-yl)-4-fluoro-phenyl]-4-methyl-7,8-dihydro-6H-quinazolin-5-one]", "IC50": "< 1000"},
      {"smiles": "Nc1nc(Cc2cccc([N+](=O)[O-])c2)c2c(n1)CC(c1ccccc1)CC2=O", "note": "(stereo not shown) [Compound 308, 2-amino-4-(3-nitro-benzyl)-7-phenyl-7,8-dihydro-6H-quinazolin-5-one]", "IC50": "> 10000"},
      {"smiles": "COc1cccc(-c2scnc2[C@H]2CC(=O)c3c(C)nc(N)nc3C2)n1", "note": "[Compound 297, (R)-2-amino-7-[5-(6-methoxy-pyridin-2-yl)-thiazol-4-yl]-4-methyl-7,8-dihydro-6H-quinazolin-5-one]", "IC50": "1000 to 10000"},
      {"smiles": "Cc1nc(N)nc2c1C(=O)CC(c1nccn1-c1ccccc1F)C2", "note": "(stereo not shown) [Compound 188, 2-amino-7-[1-(2-fluoro-phenyl)-1H-imidazol-2-yl]-4-methyl-7,8-dihydro-6H-quinazolin-5-one]", "IC50": "< 1000"},
      {"smiles": "Cc1nc(N)nc2c1C(=O)C(NC(=O)c1ccccc1)C(c1ccccc1)C2", "note": "(stereo not shown) [Compound 241, N-(2-amino-4-methyl-5-oxo-7-phenyl-5,6,7,8-tetrahydro-quinazolin-6-yl)-benzamide]", "IC50": "> 10000"},
      {"smiles": "COc1nccc(-c2cc(F)ccc2C2CC(=O)c3c(C)nc(N)nc3C2)n1", "note": "(stereo not shown) [Compound 258, 2-amino-7-[4-fluoro-2-(2-methoxy-pyrimidin-4-yl)-phenyl]-4-methyl-7,8-dihydro-6H-quinazolin-5-one]", "IC50": "> 10000"},
      {"smiles": "COc1nc(-n2ccnc2[C@@H]2CC(=O)c3c(C)nc(N)nc3C2)ncc1C", "note": "[Compound 208, (S)-2-amino-7-[1-(4-methoxy-5-methyl-pyrimidin-2-yl)-1H-imidazol-2-yl]-4-methyl-7,8-dihydro-6H-quinazolin-5-one]", "IC50": "< 1000"},
      {"smiles": "COc1cncc(-c2cc(F)ccc2[C@H]2CC(=O)c3c(C)nc(N)nc3C2)n1", "note": "[Compound 225, (R)-2-amino-7-[4-fluoro-2-(6-methoxy-pyrazin-2-yl)-phenyl]-4-methyl-7,8-dihydro-6H-quinazolin-5-one]", "IC50": "1000 to 10000"},
      {"smiles": "COc1ccc(F)c(-n2ccnc2C2CC(=O)c3c(C)nc(N)nc3C2)c1", "note": "(stereo not shown) [Compound 196, 2-amino-7-[1-(2-fluoro-5-methoxy-phenyl)-1H-imidazol-2-yl]-4-methyl-7,8-dihydro-6H-quinazolin-5-one]", "IC50": "1000 to 10000"},
      {"smiles": "Cc1nc(N)nc2c1C(=O)CC(c1cc(F)ccc1-c1cncnc1)C2", "note": "(stereo not shown) [Compound 284, 2-amino-7-(5-fluoro-2-pyrimidin-5-yl-phenyl)-4-methyl-7,8-dihydro-6H-quinazolin-5-one]", "IC50": "> 10000"},
      {"smiles": "COc1ncncc1-c1cc(F)ccc1C1CC(=O)c2c(C)nc(N)nc2C1", "note": "(stereo not shown) [Compound 278, 2-amino-7-[4-fluoro-2-(4-methoxy-pyrimidin-5-yl)-phenyl]-4-methyl-7,8-dihydro-6H-quinazolin-5-one]", "IC50": "< 1000"},
      {"smiles": "CCc1nc(N)nc2c1C(=O)CC(c1ccc(F)cc1-c1cnc(N)c(OC)n1)C2", "note": "(stereo not shown) [Compound 335, 2-amino-7-[2-(5-amino-6-methoxy-pyrazin-2-yl)-4-fluoro-phenyl]-4-ethyl-7,8-dihydro-6H-quinazolin-5-one]", "IC50": "< 1000"},
      {"smiles": "Cc1nc(N)nc2c1C(=O)CC(c1ccc(F)cc1-c1cccc(O)n1)C2", "note": "(stereo not shown) [Compound 264, 2-amino-7-[4-fluoro-2-(6-hydroxy-pyridin-2-yl)-phenyl]-4-methyl-7,8-dihydro-6H-quinazolin-5-one]", "IC50": "1000 to 10000"},
      {"smiles": "COc1cncc(-c2cccc(F)c2C2CC(=O)c3c(C)nc(N)nc3C2)n1", "note": "(stereo not shown) [Compound 240, 2-amino-7-[2-fluoro-6-(6-methoxy-pyrazin-2-yl)-phenyl]-4-methyl-7,8-dihydro-6H-quinazolin-5-one]", "IC50": "1000 to 10000"},
      {"smiles": "C#CCCOc1cc(F)ccc1C1CC(=O)c2c(C)nc(N)nc2C1", "note": "(stereo not shown) [Compound 192, 2-amino-7-(2-but-3-ynyloxy-4-fluoro-phenyl)-4-methyl-7,8-dihydro-6H-quinazolin-5-one]", "IC50": "< 1000"},
      {"smiles": "Cc1nc(N)nc2c1C(=O)C[C@@H](c1ccc(F)cc1-c1cccc(F)n1)C2", "note": "[Compound 214, (S)-2-amino-7-[4-fluoro-2-(6-fluoro-pyridin-2-yl)-phenyl]-4-methyl-7,8-dihydro-6H-quinazolin-5-one]", "IC50": "< 1000"},
      {"smiles": "COc1cncc(-c2scnc2C2CC(=O)c3c(C)nc(N)nc3C2)n1", "note": "(stereo not shown) [Compound 303, 2-amino-7-[5-(6-methoxy-pyrazin-2-yl)-thiazol-4-yl]-4-methyl-7,8-dihydro-6H-quinazolin-5-one]", "IC50": "< 1000"},
      {"smiles": "COc1cccc(-n2ccnc2[C@@H]2CC(=O)c3c(C)nc(N)nc3C2)n1", "note": "[Compound 204, (S)-2-amino-7-[1-(6-methoxy-pyridin-2-yl)-1H-imidazol-2-yl]-4-methyl-7,8-dihydro-6H-quinazolin-5-one]", "IC50": "< 1000"},
      {"smiles": "Cc1ccc(-n2ccnc2C2CC(=O)c3c(C)nc(N)nc3C2)c(F)c1", "note": "(stereo not shown) [Compound 329, 2-amino-7-[1-(2-fluoro-4-methyl-phenyl)-1H-imidazol-2-yl]-4-methyl-7,8-dihydro-6H-quinazolin-5-one]", "IC50": "1000 to 10000"}
    ]}
  ]
}
